Laboratory results: patent US7977284B2, “Non-estrogenic alkylphenol derivatives” (Oil Chem Technologies, Inc, priority 2009, dated 2011)

How the values were obtained:
estrogenicity = conditions: Jobling and Sumpter 1993; cited from earlier work
[1] = system: vitellogenin gene expression in trout hepatocytes; test: Relative estrogenicity compared to estradiol; standard test procedure and stimulation of vitellogenin gene expression in trout hepatocytes; conditions: for Relative Estrogenicity: compared to estradiol, assigned an estrogenicity value of unity; for estrogenicity (result in words): standard test procedure, vitellogenin gene expression in trout hepatocytes

Molecule	times less estrogenic compared to Estradiol (estrogenicity)	Relative Estrogenicity [1]	estrogenicity (result in words) [1]
nonylphenol	9,000 times	0.000111	relatively high estrogenicity
C[C@]12CC[C@@H]3c4ccc(O)cc4CC[C@H]3[C@@H]1CC[C@@H]2O [Estradiol]	–	1	–
CC(C)(C)CC(C)(C)c1ccc(O)cc1 [4-t-octylphenol]	1,200 times	0.00037	relatively high estrogenicity
CC(C)(C)c1ccc(O)cc1 [4-t-butylphenol]	1,100 times	–	–
